The values that follow come from patent publication US10722484B2, “Methods of cancer treatment” (K-Gen, Inc., priority 2016, dated 2020).

Entries after “also recorded” stand apart in the source; their conditions may differ. A value given as a limit tells only on which side of the number the result lay.

The test has as its system A549 lung cancer cell line. Put plainly: Combination viability/proliferation assays (384-well IC50 ratio, 96-well MacSynergy II). To be noted: for Ratio ([…] DMSO IC50/combination IC50) / Combination in A549: K101A (synergism/antagonism) / Combination in A549: K101E (synergism/antagonism) / Combination in A549: K102 (synergism/antagonism) / concentration range in which the antagonistic effect was detected: A549; for Ratio ([…] DMSO IC50/combination IC50): NC: no change; for effect in combination with the PKC activator compounds in inhibiting the growth of A549 cells: PKC activator compounds (K101A, K101E, K102); for Combination in A549: K101A (synergism/antagonism): agent assayed in combination with K101A; for Combination in A549: K101A (synergism/antagonism) / Combination in A549: K102 (synergism/antagonism): * 2-3 concentrations, # full concentration ranges; for Combination in A549: K101E (synergism/antagonism): agent assayed in combination with K101E; for Combination in A549: K102 (synergism/antagonism): agent assayed in combination with K102; for concentration range in which the antagonistic effect was detected: with PKC activator compounds (FIG. 10A, 10B), trametinib full range tested, erlotinib lower half of range tested. Type of test: cell-based. As for the experimental part: A 96-well MacSynergy II format for combination test was also used. […] The analysis was done with the SQRT(Data) scale and the four parameter Hill curve was fitted using XLfit5.1 (the MacSynergy II Excel Spreadsheet) for the inhibition data. Synergy (positive number) or Antagonism (negative number) volumes were calculated. […] Three-dimensional MacSynergy II graphs were generated where positive values indicated synergism and negative values indicated antagonism.

Setting [1] is: in combination with 0.0002 μM K102.
Where [2] appears, read: in combination with 0.002 μM K102.
The mark [3] stands for this setting: in combination with 0.005 μM K101A.
[4] abbreviates: in combination with 0.02 μM K102.
The mark [5] stands for this setting: in combination with 0.05 μM K101A.
[6] abbreviates: in combination with 0.5 μM K101A, ratio >2 synergistic, <0.5 antagonistic.

Take `Nc1cc(C(F)(F)F)c(-c2cc(N3CCOCC3)nc(N3CCOCC3)n2)cn1` [BKM-120, 5-[2,6-Di(4-morpholinyl)-4-pyrimidinyl]-4-(trifluoromethyl)-2-pyridinamine]: the “effect in combination with the PKC activator compounds in inhibiting the growth of A549 cells” value is given as “strong synergy”, the “Combination in A549: K101A (synergism/antagonism)” value is reported as “Synergism (strong)”, the “Combination in A549: K101E (synergism/antagonism)” value is “None” and the “Combination in A549: K102 (synergism/antagonism)” value is “Synergism (moderate)”. The “Ratio ([…] DMSO IC50/combination IC50)” value under setting [1] is given as 0.86. Moreover, under setting [2], the “Ratio ([…] DMSO IC50/combination IC50)” value came to 1.24. The “Ratio ([…] DMSO IC50/combination IC50)” value under setting [3] was found to be 0.94. Further, under setting [4], the “Ratio ([…] DMSO IC50/combination IC50)” value is 2.36. In addition, under setting [5], the “Ratio ([…] DMSO IC50/combination IC50)” value is listed as 1.21. The “Ratio ([…] DMSO IC50/combination IC50)” value under setting [6] is recorded as 2.43.
In the case of `CC(C)C[C@H](NC(=O)[C@H](CCc1ccccc1)NC(=O)CN1CCOCC1)C(=O)N[C@@H](Cc1ccccc1)C(=O)N[C@@H](CC(C)C)C(=O)[C@@]1(C)CO1` [Carfilzomib], the “effect in combination with the PKC activator compounds in inhibiting the growth of A549 cells” value is reported as “insignificant synergism or antagonism”, the “Combination in A549: K101A (synergism/antagonism)” value is reported as “None” and the “Combination in A549: K102 (synergism/antagonism)” value was “None”.
As to `C#Cc1cccc(Nc2ncnc3cc(OCCOC)c(OCCOC)cc23)c1` [Erlotinib], the “concentration range in which the antagonistic effect was detected” value is 0.3 to 2.5 µM and the “effect in combination with the PKC activator compounds in inhibiting the growth of A549 cells” value is “Moderate antagonistic effect”.
With `CO[C@H]1C[C@@H]2CC[C@@H](C)[C@@](O)(O2)C(=O)C(=O)N2CCCC[C@H]2C(=O)O[C@H]([C@H](C)C[C@@H]2CC[C@@H](OCCO)[C@H](OC)C2)CC(=O)[C@H](C)/C=C(\C)[C@@H](O)[C@@H](OC)C(=O)[C@H](C)C[C@H](C)/C=C/C=C/C=C/1C` [Everolimus], the “effect in combination with the PKC activator compounds in inhibiting the growth of A549 cells” value is listed as “strong synergy”, the “Combination in A549: K101A (synergism/antagonism)” value is listed as “Synergism”, the “Combination in A549: K101E (synergism/antagonism)” value was “Synergism” and the “Combination in A549: K102 (synergism/antagonism)” value is listed as “Synergism”. Under setting [2], the “Ratio ([…] DMSO IC50/combination IC50)” value is reported as greater than 2. The “Ratio ([…] DMSO IC50/combination IC50)” value under setting [4] is greater than 2. Besides, the “Ratio ([…] DMSO IC50/combination IC50)” value under setting [5] is reported as greater than 2. The “Ratio ([…] DMSO IC50/combination IC50)” value under setting [6] is listed as greater than 2. Moreover, the “Ratio ([…] DMSO IC50/combination IC50)” value (in combination with […] K101E) is greater than 2.
In the case of `Nc1ccn([C@@H]2O[C@H](CO)[C@@H](O)C2(F)F)c(=O)n1` [Gemcitabine], the “effect in combination with the PKC activator compounds in inhibiting the growth of A549 cells” value is on record as “insignificant synergism or antagonism”, the “Combination in A549: K101A (synergism/antagonism)” value is reported as “None”, the “Combination in A549: K101E (synergism/antagonism)” value is “None” and the “Combination in A549: K102 (synergism/antagonism)” value was “None”. Besides, under setting [1], the “Ratio ([…] DMSO IC50/combination IC50)” value is on record as 0.72. Besides, the “Ratio ([…] DMSO IC50/combination IC50)” value under setting [2] came out at 0.76. Further, the “Ratio ([…] DMSO IC50/combination IC50)” value under setting [3] is 0.80. Further, the “Ratio ([…] DMSO IC50/combination IC50)” value under setting [4] was found to be 0.69. Under setting [5], the “Ratio ([…] DMSO IC50/combination IC50)” value is on record as 0.91. Also, under setting [6], the “Ratio ([…] DMSO IC50/combination IC50)” value is recorded as 0.97.
As to `Cc1cc(-c2ncc(CC(=O)Nc3ccc(-c4cnccn4)cn3)cc2C)ccn1` [LGK-974, 2-[5-methyl-6-(2-methylpyridin-4-yl)pyridin-3-yl]-N-(5-pyrazin-2-ylpyridin-2-yl)acetamide], the “Combination in A549: K101A (synergism/antagonism)” value is recorded as “Synergism (minor)” and the “Combination in A549: K102 (synergism/antagonism)” value is “Synergism (minor)”.
With `CS(=O)(=O)CCNCc1ccc(-c2ccc3ncnc(Nc4ccc(OCc5cccc(F)c5)c(Cl)c4)c3c2)o1` [Lapatinib], the “effect in combination with the PKC activator compounds in inhibiting the growth of A549 cells” value was “no or insignificant antagonistic effect; also recorded: insignificant synergism or antagonism”.
For the compound `O=C1[O][Pt]2([NH][C@@H]3CCCC[C@H]3[NH]2)[O]C1=O` [Oxaliplatin], the “effect in combination with K101A or K102 in inhibiting the growth of A549 cells” value is reported as “synergy”.
`CN[C@@H]1C[C@H]2O[C@@](C)([C@@H]1OC)n1c3ccccc3c3c4c(c5c6ccccc6n2c5c31)C(=O)NC4` [STS, staurosporine]: the “effect in combination with the PKC activator compounds in inhibiting the growth of A549 cells” value is reported as “synergistic effects”, the “Combination in A549: K101A (synergism/antagonism)” value is reported as “Synergism”, the “Combination in A549: K101E (synergism/antagonism)” value is on record as “Synergism” and the “Combination in A549: K102 (synergism/antagonism)” value is listed as “Synergism”.
In the case of `CC(=O)Nc1cccc(-n2c(=O)n(C3CC3)c(=O)c3c(Nc4ccc(I)cc4F)n(C)c(=O)c(C)c32)c1` [Trametinib], the “concentration range in which the antagonistic effect was detected” value lay in the range of 0.003 to 0.2 µM. Also, the “Ratio ([…] DMSO IC50/combination IC50)” value under setting [1] worked out at 0.72. For the same compound, the “Ratio ([…] DMSO IC50/combination IC50)” value under setting [2] is given as 0.80. The “Ratio ([…] DMSO IC50/combination IC50)” value under setting [3] is recorded as 1.36. For the same compound, the “Ratio ([…] DMSO IC50/combination IC50)” value under setting [4] is 0.44. For the same compound, the “Ratio ([…] DMSO IC50/combination IC50)” value under setting [5] amounted to 1.10. In addition, the “Ratio ([…] DMSO IC50/combination IC50)” value under setting [6] stood at 0.50.
